Results from patent US8523975B2, “Salts of mineral nutrients stabilized with amino acids and/or ammonium salt, products and food supplements that contain them and procedures for obtaining same” (priority 2005, dated 2013).

Tests used:
[1] = reference data (Merck Index XII / manufacturer Bartek Inc.); cited from earlier work
[2] = Comparative data of solubility in water; conditions: 25° C., solubility expressed as iron

O.O.O.O=C([O-])/C=C/C(=O)[O-].[Ca+2] [Calcium Fumarate 3H2O]
Solubility in water at 25° C. (non-stabilized salt) [1]: 1.22 grams per liter

O=C([O-])/C=C/C(=O)[O-].[Fe+2] [Ferrous fumarate]
Solubility in water at 25° C. (non-stabilized salt) [1]: 1.4 grams per liter
Fe++ (ferrous) allowed per liter of water [2]: 0.460 gr Fe++ per liter of water
